Results published in US20240349723A1 (priority 2023, published 2024).
“Also recorded” adds a separate entry of the source. Where two headings read alike, the source gives them in different places. Where a SMILES comes first, the peptide text is derived from it. Where no end group is shown, it is not given here.

Tests used:
[1] = tested on: Liberibacter crescens strain BT-1
Diaphorina citri = type: in vivo; details: for Nymph mortality of D. citri: dead psyllids counted daily, 21 days, FIG. 9; for live adult psyllids collected from the ten leaves: after 21 day assay, 10 nymphs per excised leaf, peptides 1 mg/mL, PMB 0.5 mg/mL
CLas = type: in vivo, Candidatus Liberibacter asiaticus
[2] = tested on: 'Candidatus Liberibacter asiaticus' (CLas); type: in vivo; details: excised CLas-infected citrus leaves, 1 mg/ml, seven-day incubation, FIG. 5
[3] = adults developed on treated CLas-infected leaves, 21 days, FIG. 7

Compound: CC[C@H](C)[C@H](NC(=O)[C@H](CC(N)=O)NC(=O)[C@@H](NC(=O)CNC(=O)[C@H](CCCNC(=N)N)NC(=O)[C@H](Cc1ccccc1)NC(=O)[C@H](CCC(N)=O)NC(=O)[C@@H]1CCCN1C(=O)[C@H](CS)NC(=O)[C@H](CC(=O)O)NC(=O)[C@H](CCCCN)NC(=O)[C@H](CC(=O)O)NC(=O)[C@H](CCCNC(=N)N)NC(=O)[C@H](CCCCN)NC(=O)[C@H](CS)NC(=O)CNC(=O)[C@@H](N)CCCNC(=N)N)C(C)C)C(=O)N[C@@H](CCCNC(=N)N)C(=O)N[C@@H](CS)C(=O)N[C@@H](CCCNC(=N)N)C(=O)O [compound 9] (H-RGCKRDKDCPQFRGVNIRCR-OH; N-terminus and C-terminus assumed)
- Percent growth rate inhibition L. crescens ([1]; 0.1 mg/ml): 65.4%

Compound: LRFRSVFHIFASVLAVAKKH [compound 6]
- Percent growth rate inhibition L. crescens ([1]; L. crescens strain BT-1, BM7 medium, final peptide 1 or 0.1 mg/ml, O.D. 600 nm over seven days): 66.6%

Compound: LYCNVGSHMECVKHQCKCIK (listed as Medicago truncatula) [SEQ ID NO: 11]
- Nymph mortality of D. citri (Diaphorina citri): Nymph mortality observed
- number of infective Diaphorina citri adults that develop on treated leaves (CLas; leaf delivery, FIG. 7): reduces the number of infective Diaphorina citri adults

Compound: QNLCVGSPLPLQCLKFICRC (listed as Medicago truncatula) [SEQ ID NO: 14]
- Nymph mortality of D. citri (Diaphorina citri): Nymph mortality observed
- number of infective Diaphorina citri adults that develop on treated leaves (CLas; leaf delivery, FIG. 7): reduces the number of infective Diaphorina citri adults

Compound: RGCKRDKDCPQFRGVNIRCR (listed as Medicago truncatula) [SEQ ID NO: 9]
- live adult psyllids collected from the ten leaves (Diaphorina citri): 80
- development of psyllid with more than 100 CLas cells per insect (high titer) (CLas; in vivo): completely blocking the development of psyllid with more than 100 CLas cells; also recorded: No highly infected adults develop
- number of infective Diaphorina citri adults that develop on treated leaves (CLas; in vivo): reduces the number of infective Diaphorina citri adults

Compound: VKCVLPRIARCIKYRCQCRN (listed as Medicago truncatula) [SEQ ID NO: 10]
- live adult psyllids collected from the ten leaves (Diaphorina citri): 74
- development of psyllid with more than 100 CLas cells per insect (high titer) (CLas; [3]): completely blocking the development of psyllid with more than 100 CLas cells; also recorded: No highly infected adults develop
- number of infective Diaphorina citri adults that develop on treated leaves (CLas; leaf delivery, FIG. 7): reduces the number of infective Diaphorina citri adults

Compound: YSSCATKEECKCPDNKRPAC (listed as Medicago truncatula) [SEQ ID NO: 8]
- live adult psyllids collected from the ten leaves (Diaphorina citri): 84
- adult insects with more than 100 CLas cell equivalents per insect (CLas; count out of adults collected, 21 days, FIG. 7): 2/84
- number of infective Diaphorina citri adults that develop on treated leaves (CLas; leaf delivery, FIG. 7): reduces the number of infective Diaphorina citri adults

Compound: polymyxin B sulfate [PMB, reference compound]
- performance in the bacterial growth assays ([1]; positive growth inhibition control, 0.5 mg/ml): excellent performance as an antimicrobial peptide
- live adult psyllids collected from the ten leaves (Diaphorina citri): 87
- development of psyllid with more than 100 CLas cells per insect (high titer) (CLas; [3]): prevented the development of high titer psyllid
- CLas titer in the excised leaves (CLas; excised leaf acquisition assay, FIG. 6A, differences not statistically significant): reduced CLas titer in the excised leaves
- CLas 16S transcript-to-gene ratio (CLas rRNA : CLas rDNA), CLas activity [2]: greater declines in detectable CLas activity
